Assay: Skin permeation of CBD in a Franz-type diffusion cell
Type: in vitro ADME
Settings: 5 ul of 5.0% w/w CBD formulation, 48-hour exposure
Description: Dermatomed skin from a single donor was mounted in a Franz-type diffusion cell (0.55 cm^2 receptor fluid exposure surface area) and dosed with 5 ul of CBD formulated in an mixture of a volatile solvent (hexylmethyldisiloxane/polymethylsiloxane—93% w/w), and residual solvent (arlamol E—2% w/w) at a concentration of 5.0% (w/w; 35.5 mg/ml). Following dosing, receptor phase samples were collected at 4, 10, 24 and 48 hours; after which the study was terminated.
The residual formulation was removed by tape stripping and the epidermis and dermis separated by blunt dissection. The levels of CBD in the epidermis, dermis, and receptor fluid samples were then analyzed using a bioanalytical method with LC-MS/MS detection.

For `C=C(C)C1CCC(C)=CC1c1c(O)cc(CCCCC)cc1O` (centres unmarked) [CBD, 2-[3-methyl-6-(1-methylethenyl)-2-cyclohexen-1-yl]-5-pentyl-1,3-benzenediol], the “skin permeation through to the receptor phase, % of applied dose” value was “less than 0.081%” and the “skin permeation, amount in the receptor phase” value was less than 278 ng/cm^2.

— US20210052492A1, “Cannabinoid Dosing Regime For Psoriasis” (Botanix Pharmaceuticals Ltd., priority 2018, published 2021)
